Measurements published in ChEMBL document CHEMBL1127377, “2-Substitution of N6-benzyladenosine-5'-uronamides enhances selectivity for A3 adenosine receptors” (J Med Chem, 1994).

Legend:
Adenosine receptor A1 = molecular target: T1, Adenosine receptor A1 (Rattus norvegicus, UniProt P25099)
T1 sequence (P25099 whole entry): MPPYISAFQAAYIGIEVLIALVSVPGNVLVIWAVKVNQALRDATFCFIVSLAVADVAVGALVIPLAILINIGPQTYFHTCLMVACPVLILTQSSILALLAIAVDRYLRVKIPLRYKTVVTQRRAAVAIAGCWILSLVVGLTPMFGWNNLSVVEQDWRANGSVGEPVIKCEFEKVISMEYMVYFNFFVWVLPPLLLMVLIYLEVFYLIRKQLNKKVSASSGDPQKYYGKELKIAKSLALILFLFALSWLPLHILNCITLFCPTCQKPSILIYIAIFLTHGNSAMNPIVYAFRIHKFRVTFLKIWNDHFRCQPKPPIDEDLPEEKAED
Description: Tested for the binding affinity of A1 receptor by displacing the [3H]-PIA in rat brain membranes

Adenosine receptor A2a = Adenosine receptor A2a (Rattus norvegicus, UniProt P30543)
Adenosine receptor A3 = molecular target: T2, Adenosine receptor A3 (Rattus norvegicus, UniProt P28647); assay: biochemical
T2 sequence (P28647 whole entry): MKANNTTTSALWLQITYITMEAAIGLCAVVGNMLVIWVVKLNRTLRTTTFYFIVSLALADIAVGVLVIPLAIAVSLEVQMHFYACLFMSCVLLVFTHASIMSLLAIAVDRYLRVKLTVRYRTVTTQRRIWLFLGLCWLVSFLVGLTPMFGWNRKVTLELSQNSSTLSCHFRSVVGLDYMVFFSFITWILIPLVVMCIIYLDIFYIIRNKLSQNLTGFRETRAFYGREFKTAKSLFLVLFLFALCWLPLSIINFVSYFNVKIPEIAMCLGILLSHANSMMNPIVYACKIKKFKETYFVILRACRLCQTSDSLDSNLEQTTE
Description: Tested for the binding affinity of A3 receptor by displacing N6-[[125I]-4-amino-3-iodobenzyl]-adenosine-5''-N-methyluronamide from membranes of CHO cells transfected with rat A3-cDNA

Adenosine receptor A2a, sequence (P30543 whole entry): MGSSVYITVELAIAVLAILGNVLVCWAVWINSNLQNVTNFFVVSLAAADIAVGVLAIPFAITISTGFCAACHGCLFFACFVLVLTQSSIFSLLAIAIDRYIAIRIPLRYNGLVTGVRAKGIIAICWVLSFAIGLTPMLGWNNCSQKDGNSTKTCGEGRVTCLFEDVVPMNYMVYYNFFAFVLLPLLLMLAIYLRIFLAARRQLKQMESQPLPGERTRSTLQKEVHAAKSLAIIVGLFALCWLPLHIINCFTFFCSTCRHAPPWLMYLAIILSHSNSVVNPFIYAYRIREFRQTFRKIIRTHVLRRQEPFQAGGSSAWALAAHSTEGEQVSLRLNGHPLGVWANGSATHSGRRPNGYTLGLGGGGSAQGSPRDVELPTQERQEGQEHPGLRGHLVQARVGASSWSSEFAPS

Row | Compound | Ki (Adenosine receptor A1) [nM] | Ki (Adenosine receptor A2a) [nM] | Ki (Adenosine receptor A3) [nM]
1 | Nc1ccc(CCNc2ncnc3c2ncn3[C@@H]2O[C@H](CO)[C@@H](O)[C@H]2O)cc1 | 14 |  | 
2 | CNC(=O)[C@H]1O[C@@H](n2cnc3c(NCc4ccc(N)c(I)c4)ncnc32)[C@H](O)[C@@H]1O |  | 197 | 
3 | Nc1ccc(CCNc2ncnc3c2ncn3C2O[C@H](CO)[C@@H](O)[C@H]2O)cc1I (stereo not given in full) | 2.1 |  | 15.5
4 | OC[C@H]1O[C@@H](n2cnc3c(NC4CCCC4)ncnc32)[C@H](O)[C@@H]1O [N6-CYCLOPENTYLADENOSINE] |  | 462 | 
